Source: patent US20070249590A1, “Substituted indolo[2,3-a]pyrrolo[3,4-c]carbazole compounds useful in treating kinase disorders” (priority 2005, published 2007)

target: T1, JAK3 (JH1 and JH2 domain) (Homo sapiens, UniProt P52333); assay: JAK3 Kinase Assay (ELISA of peptide substrate phosphorylation); format: biochemical; conditions: purified JAK3 enzyme, 10 μM ATP, biotinylated peptide substrate, 1 hour at room temperature
T1 sequence (P52333 521-1111 limits assumed): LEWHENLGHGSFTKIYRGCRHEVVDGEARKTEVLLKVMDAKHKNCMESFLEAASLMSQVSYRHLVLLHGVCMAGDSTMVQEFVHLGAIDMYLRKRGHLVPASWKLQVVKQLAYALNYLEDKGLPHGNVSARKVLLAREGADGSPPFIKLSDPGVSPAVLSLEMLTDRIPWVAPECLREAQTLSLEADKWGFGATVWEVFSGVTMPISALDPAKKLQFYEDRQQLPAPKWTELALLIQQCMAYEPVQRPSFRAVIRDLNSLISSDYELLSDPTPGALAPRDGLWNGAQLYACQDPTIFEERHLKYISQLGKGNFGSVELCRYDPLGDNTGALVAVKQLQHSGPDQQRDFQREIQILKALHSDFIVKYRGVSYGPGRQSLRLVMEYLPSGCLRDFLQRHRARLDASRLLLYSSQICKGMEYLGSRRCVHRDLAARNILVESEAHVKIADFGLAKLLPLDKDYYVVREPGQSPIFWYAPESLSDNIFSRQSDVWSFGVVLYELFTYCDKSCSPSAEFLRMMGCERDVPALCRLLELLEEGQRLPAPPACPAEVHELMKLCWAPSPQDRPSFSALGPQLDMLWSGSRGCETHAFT
Method in brief: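 Sf21-baculovirus-expressed JAK3 (JH1+JH2), glutathione-bead purified, with biotinylated peptide substrate (in buffer containing 10 μM ATP) in HEPES pH 7.5/MgCl2/DTT, 1 h RT. Product was captured on Neutravidin, detected with HRP anti-phosphotyrosine (PY99)/TMB, OD 450/650 nm. Triplicate 16-point half-log series from 200 μM gave IC50; otherwise % inhibition at 1 μM.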

Compound | IC50 [nM]
NC1CCN(C(=O)OCC2(O)Cn3c4ccccc4c4c5c(c6c7ccccc7n(c6c43)C2)C(=O)NC5)CC1 (stereo not drawn) [Cpd 176, 12,13-{2-hydroxy-2-[(4-amino-piperidin-1-yl)carbonyloxymethyl]-propan-1,3-yl}-6,7,12,13-tetrahydro-5-oxo-5H-indolo[2,3-a]pyrrolo[3,4-c]carbazole] | 177
COc1ccc2[nH]cc(CCNC(=O)OC3Cn4c5ccccc5c5c6c(c7c8ccccc8n(c7c54)CC3O)C(=O)NC6=O)c2c1 (stereo not drawn) [Cpd 87, 12,13-(2-{[2-(5-methoxy-1H-indol-3-yl)ethyl]carbamoyloxy}-3-hydroxy-butan-1,4-yl)-12,13-dihydro-5,7-dioxo-6H-indolo[2,3-a]pyrrolo[3,4-c]carbazole] | 169
CN(C)CCN(C)C(=O)OC1CCn2c3ccccc3c3c4c(c5c6ccccc6n(c5c32)C1)C(=O)NC4=O (stereo not drawn) [Cpd 67, 12,13-(2-{[N-methyl-N-(2-dimethylamino-ethyl)]carbamoyloxy}-butan-1,4-yl)-12,13-dihydro-5,7-dioxo-6H-indolo[2,3-a]pyrrolo[3,4-c]carbazole] | 247
O=C1NC(=O)c2c1c1c3ccccc3n3c1c1c2c2ccccc2n1CC(OC(=O)N1CCN(CCN2CCOCC2)CC1)C(O)C3 (stereo not drawn) [Cpd 94] | 516
O=C(NCCCN1CCOCC1)OCC1Cn2c3ccccc3c3c4c(c5c6ccccc6n(c5c32)C1)C(=O)NC4 (stereo not drawn) [Cpd 165, 12,13-{2-[(3-morpholin-4-yl-prop-1-yl)carbamoyloxymethyl]-propan-1,3-yl}-6,7,12,13-tetrahydro-5-oxo-5H-indolo[2,3-a]pyrrolo[3,4-c]carbazole] | 278
O=C1NC(=O)c2c1c1c3ccccc3n3c1c1c2c2ccccc2n1CC(OC(=O)N1CCN(C(c2ccccc2)c2ccccc2)CC1)C(O)C3 (stereo not drawn) [Cpd 103, 12,13-{2-[(4-benzhydryl-piperazin-1-yl)carbonyloxy]-3-hydroxy-butan-1,4-yl}-12,13-dihydro-5,7-dioxo-6H-indolo[2,3-a]pyrrolo[3,4-c]carbazole] | 436
CN1CCN(CCCNC(=O)OC2CCn3c4ccccc4c4c5c(c6c7ccccc7n(c6c43)C2)C(=O)NC5=O)CC1 (stereo not drawn) [Cpd 43, 12,13-(2-{[3-(4-methyl-piperazin-1-yl)prop-1-yl]carbamoyloxy}-butan-1,4-yl)-12,13-dihydro-5,7-dioxo-6H-indolo[2,3-a]pyrrolo[3,4-c]carbazole] | 112

These reach a lower IC50. Values come first.

IC50 [nM] | Compound
13 | O=Cc1ccc2c(c1)c1c3c(c4c5cc(Br)ccc5n5c4c1n2CC(CO)C5)C(=O)NC3 (stereo not drawn) [Cpd 207, 3-bromo-9-formyl-12,13-(2-hydroxymethyl-propan-1,3-yl)-6,7,12,13-tetrahydro-5-oxo-5H-indolo[2,3-a]pyrrolo[3,4-c]carbazole]
27 | CN1CCN(C(=O)C2(O)Cn3c4ccccc4c4c5c(c6c7ccccc7n(c6c43)CC2O)C(=O)NC5=O)CC1 (stereo not drawn) [Cpd 125, 12,13-{2-[(4-methyl-piperazin-1-yl)carbonyl]-2,3-dihydroxy-butan-1,4-yl}-12,13-dihydro-5,7-dioxo-6H-indolo[2,3-a]pyrrolo[3,4-c]carbazole]
35 | O=C1NC(=O)c2c1c1c3cc(-c4cccnc4)ccc3n3c1c1c2c2ccccc2n1CC(O)CC3 (stereo not drawn) [Cpd 32, 3-pyridin-3-yl-12,13-(2-hydroxy-butan-1,4-yl)-12,13-dihydro-5,7-dioxo-6H-indolo[2,3-a]pyrrolo[3,4-c]carbazole]
13 | O=C1NC(=O)c2c1c1c3cc(-c4cnccn4)ccc3n3c1c1c2c2ccccc2n1CC(O)CC3 (stereo not drawn) [Cpd 35, 3-pyrazin-2-yl-12,13-(2-hydroxy-butan-1,4-yl)-12,13-dihydro-5,7-dioxo-6H-indolo[2,3-a]pyrrolo[3,4-c]carbazole]
98 | O=C1NC(=O)c2c1c1c3ccccc3n3c1c1c2c2ccccc2n1CC(OC(=O)N1CCN(c2ccc(O)cc2)CC1)CC3 (stereo not drawn) [Cpd 58, 12,13-(2-{[4-(4-hydroxy-phenyl)piperazin-1-yl]carbonyloxy}-butan-1,4-yl)-12,13-dihydro-5,7-dioxo-6H-indolo[2,3-a]pyrrolo[3,4-c]carbazole]
84 | O=C(NCCCn1ccnc1)OCC1(O)Cn2c3ccccc3c3c4c(c5c6ccccc6n(c5c32)C1)C(=O)NC4 (stereo not drawn) [Cpd 152, 12,13-{2-hydroxy-2-[(3-1H-imidazol-1-yl-prop-1-yl)carbamoyloxymethyl]-propan-1,3-yl}-6,7,12,13-tetrahydro-5-oxo-5H-indolo[2,3-a]pyrrolo[3,4-c]carbazole]
11 | Cc1ccc(CNC(=O)OC2CCn3c4ccccc4c4c5c(c6c7ccccc7n(c6c43)C2)C(=O)NC5=O)o1 (stereo not drawn) [Cpd 48, 12,13-(2-{[(5-methyl-furan-2-yl)methyl]carbamoyloxy}-butan-1,4-yl)-12,13-dihydro-5,7-dioxo-6H-indolo[2,3-a]pyrrolo[3,4-c]carbazole]
45 | CC1(C)O[C@@H]2Cn3c4ccccc4c4c5c(c6c7ccccc7n(c6c43)C[C@H]2O1)C(=O)NC5 [Cpd 17, 12,13-[(4R,5R)-2,2-dimethyl-[1,3]dioxolo[4,5-b]butan-1,4-yl]-6,7,12,13-tetrahydro-5-oxo-5H-indolo[2,3-a]pyrrolo[3,4-c]carbazole]
